Experimental data as given in ChEMBL document CHEMBL1201862, “PubChem BioAssay data set” (2004).
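Compound exposure: 48 hours, 5 concentrations, 96-well plates. GI50: concentration for 50% inhibition of growth.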 Active and inactive are the calls of the source. Cut-off read from the data, not from the text of the source: active = GI50 up to about 1.1 µM and inactive = higher.

Key:
Assay in all cases: NCI anticancer screen, dose series, 48 h
[1] = system: A549
[2] = system: CAKI-1
[3] = system: COLO 205
[4] = system: HOP-62
[5] = system: HOP-92
[6] = system: NCI-H226
[7] = system: NCI-H23
[8] = system: NCI-H460
[9] = system: NCI/ADR-RES
[10] = system: OVCAR-4
[11] = system: SF-268
[12] = system: SK-MEL-2
[13] = system: T47D
[14] = system: TK-10
[15] = system: EKVX
[16] = system: HT-29
[17] = system: IGROV-1
[18] = system: RXF 393
[19] = system: SW-620
[20] = system: SR

Measured: GI50

C=CCOC(=O)C1=C(CCC[C@@H](C)O[Si](C)(C)C(C)(C)C)N=C(N)N2[C@H](CCO)CC[C@@H]12
inactive: [1] 10.3 µM | [2] 13.4 µM | [3] 10.9 µM | [4] 14.1 µM | [5] 13.6 µM | [6] 18.5 µM | [7] 17.7 µM | [8] 12.9 µM | [9] 19.7 µM | [10] 10.5 µM | [11] 17.3 µM | [12] 15.3 µM | [13] 11.8 µM | [14] 16.9 µM

COc1cc(Nc2cc(Cl)cc(Cl)c2)nc(N)n1
inactive: [1] 19.9 µM | [2] 20.4 µM | [3] 23.1 µM | [15] 6.11 µM | [4] 17.5 µM | [5] 16.4 µM | [16] 17.8 µM | [17] 18.6 µM | [6] 19.4 µM | [7] 20.3 µM | [8] 16.6 µM | [9] 20.5 µM | [10] 17.9 µM | [18] 14.5 µM | [11] 19.5 µM | [12] 14.3 µM | [19] 19.7 µM | [13] 24.6 µM | [14] 21.6 µM

CC1SC(=O)SC1C (centres undefined)
inactive: [1] > 100 µM | [3] > 100 µM | [15] > 100 µM | [4] > 100 µM | [17] > 100 µM | [8] > 100 µM | [9] > 100 µM | [10] > 100 µM | [11] > 100 µM | [20] > 100 µM | [19] > 100 µM | [13] > 100 µM | [14] > 100 µM

CCOC(=O)/C(C(=O)Nc1ccc(Cl)cc1)=C(/N)N1CCOCC1
inactive: [1] > 100 µM | [2] > 100 µM | [3] > 100 µM | [15] > 100 µM | [4] > 100 µM | [16] > 100 µM | [17] > 100 µM | [6] > 100 µM | [7] > 100 µM | [8] > 100 µM | [9] > 100 µM | [10] > 100 µM | [18] > 100 µM | [11] > 100 µM | [12] > 100 µM | [19] > 100 µM | [13] > 100 µM | [14] > 100 µM

COc1cc(Nc2cnc3cc(F)c(F)cc3n2)cc(OC)c1OC
inactive: [1] > 100 µM | [2] > 100 µM | [3] > 100 µM | [15] > 100 µM | [4] 91.8 µM | [5] > 100 µM | [16] > 100 µM | [17] > 100 µM | [6] > 100 µM | [7] 73.6 µM | [8] > 100 µM | [9] > 100 µM | [10] > 100 µM | [18] 36.8 µM | [11] > 100 µM | [12] 84.3 µM | [19] > 100 µM | [13] > 100 µM | [14] > 100 µM

CC1CC2=C(C1)C(C1(C)C(=O)CC3C(C1=O)C3(C)C)C(C)C2=O (centres undefined)
inactive: [1] > 100 µM | [2] > 100 µM | [3] > 100 µM | [15] > 100 µM | [4] > 100 µM | [5] > 100 µM | [16] > 100 µM | [17] > 100 µM | [6] > 100 µM | [7] > 100 µM | [8] > 100 µM | [10] > 100 µM | [18] > 100 µM | [11] > 100 µM | [12] > 100 µM | [20] > 100 µM | [19] > 100 µM | [13] > 100 µM | [14] > 100 µM

NCCCN(CCCCN(CCCN)C(=O)OCc1ccccc1)C(=O)OCc1ccccc1
inactive: [1] > 100 µM | [2] > 100 µM | [3] > 100 µM | [15] > 100 µM | [4] > 100 µM | [5] 29.9 µM | [16] > 100 µM | [17] 24.2 µM | [6] > 100 µM | [7] > 100 µM | [8] 88.9 µM | [9] > 100 µM | [10] > 100 µM | [18] 98.6 µM | [11] 35.3 µM | [12] > 100 µM | [19] > 100 µM | [13] > 100 µM | [14] > 100 µM

O=C1N/C(=N/N=C/C(O)C(O)C(O)CO)N/C1=C\c1ccco1 (centres undefined)
inactive: [1] 64.6 µM | [2] > 100 µM | [3] > 100 µM | [15] > 100 µM | [4] > 100 µM | [5] > 100 µM | [16] > 100 µM | [17] > 100 µM | [6] > 100 µM | [7] > 100 µM | [8] > 100 µM | [9] > 100 µM | [10] > 100 µM | [18] > 100 µM | [11] > 100 µM | [19] > 100 µM | [13] > 100 µM | [14] > 100 µM
